The values that follow come from US10227369B2, “Short-chain fatty acid hexosamine analogs and their use in tissue engineering applications” (THE JOHNS HOPKINS UNIVERSITY, priority 2013, dated 2019).

Where only a bound is given, the exact number is not on record here.

For data set [1], the system named is chondrogenic-induced MSCs. In words: Chondrogenic-induced MSCs in 3D PEGDA hydrogels: real-time PCR gene expression. Format: cell-based, goat. The procedure: (§1) Goat MSCs were isolated from 2- to 4-year-old goats (Thomas D. Morris, Inc., Reisterstown, Md.), as previously described. Briefly, bone marrow aspirates treated with 6,000 U/ml heparin were washed twice with PBS. Cells were plated at a density of 120,000 mononuclear cells/cm^2 and cultured in high glucose DMEM supplemented with 10% (v/v) FBS, 2 mM L-glutamine, 100 U/ml penicillin and 100 μg/ml streptomycin. The following day, tissue culture dishes were washed with PBS and medium was replaced. Medium changes were performed 3 times per week. Cells were passaged using 0.25% trypsin. They were used for experiments after passage four.
(§2) Photoencapsulation in Poly(Ethylene Glycol)-Diacrylate (PEGDA) Hydrogels and Construct Culturing. For all 3D culture experiments, cells were photoencapsulated in PEGDA hydrogels, as previously described. Briefly, 100 mg PEGDA (3.4 kDa, SunBio, Anyang City, South Korea) was dissolved in 1 ml sterile PBS. A photoinitiator solution of Irgacure® 2959 (CIBA Specialty Chemicals) was prepared by dissolving 100 mg of Irgacure® 2959 in 1 ml 70% ethanol. Five microliters of the Irgacure® 2959 solution was added to 1 ml of PEGDA solution. Cells were suspended in the hydrogel precursor solution at a density of 20 million cells/ml and polymerized in sterile molds. A high cell density was chosen as it has been shown. Based on our previous studies a high cell density was chosen to best to support a cell phenotype and differentiation and cell phenotype. Polymerization was carried out using UV light (365 nm, 3.2 mW/cm^2) exposure for 5 minutes.
For chondrogenesis experiments, the cell-laden hydrogels were cultured in chondrogenic induction medium (high glucose DMEM supplemented with 50 μg/ml ascorbic acid-2-phosphate, 40 μg/ml L-proline, 100 μg/ml sodium pyruvate, 1% ITS-premix (6.25 μg/ml insulin, 6.25 μg/ml transferrin, 6.25 ng/ml selenous acid, 1.25 mg/ml bovine serum albumin (BSA), 5.35 μg/ml linoleic acid (Collaborative Biomedical, BD Bioscience, Bedford, Mass.)) and 10 ng/ml TGF-β1 (Fitzgerald Industries International, Acton, Mass.) with specified concentrations of GalNAc-a or 100 nM dexamethasone (as a control). Constructs were cultured for 21 days with medium changes 3 times per week. For IL-1β stimulation, the cell-laden hydrogels were cultured for 3 days in chondrogenic induction medium supplemented with 10 ng/ml IL-1β. Constructs were cultured for an additional 21 days with chondrogenic induction medium supplemented with 10 ng/ml IL-1β and the specified concentration of GalNAc-a.
RNA Isolation and Real-Time PCR. Total RNA was extracted using TRIzol® reagent (Life Technologies, Grand Island, N.Y.) following the manufacturer's protocol. cDNA was synthesized using Superscript® II reverse transcriptase (Life Technologies, Grand Island, N.Y.) following the manufacturer's protocol. Real-time PCR was carried out using a StepOnePlus™ Real-Time PCR System (Life Technologies, Grand Island, N.Y.). mRNA amounts for bovine primers were calculated using the ΔΔCt method. Relative mRNA quantities for goat primers were calculated using the Pfaffl method.
A general note: Real-time PCR tracks product formation cycle by cycle.

Data set [2] relates to chondrogenic-induced MSCs stimulated by IL-1β. In words: IL-1β-stimulated chondrogenic-induced MSCs in 3D PEGDA hydrogels: biochemical analysis. Format: cell-based, goat. The settings on record: 10 ng/ml IL-1β, 21 days exposure. The procedure: as §1
Photoencapsulation in Poly(Ethylene Glycol)-Diacrylate (PEGDA) Hydrogels and Construct Culturing. […]
(§3) Biochemical Analysis. The constructs (n=3 for chondrocyte experiments and n=4 for chondrogenic experiments) were lyophilized for 48 hours and the dry weights measured. […] Quantification of DNA content was carried out using a Hoescht Dye 33342 DNA assay. […] Quantification of sulfated glycosaminoglycans (sGAG), a molecule found in cartilage ECM, was carried out using a 1,9-dimethylmethylene blue (DMMB) dye assay; chondroitin sulfate was used to generate standard curves. Quantification of collagen was carried out via measuring hydroxyproline content after hydrolyzing in 6 N HCl overnight at 120° C. […]

In a further data set the test system is Chondrocytes. Briefly: WST-1 metabolic activity/toxicity screening of monolayer chondrocytes. Format: cell-based, bovine. The settings on record: 3 days exposure, 0-320 μM tested. The procedure:
Cell Isolation and Culturing. Bovine chondrocytes were isolated from 4- to 8-week-old calves (Research 87, Inc., Boylston, Mass.), as previously described. Briefly, cartilage was dissected from the femoral patellar groove and condyles and minced into approximately 1 mm^2 pieces. Cells were isolated from the tissue by digesting overnight at 37° C. with 2 mg/ml type II collagenase (Worthington Biochemical Corp., Lakewood, N.J.), 5% fetal bovine serum (FBS), 100 U/ml penicillin and 100 μg/ml streptomycin on an orbital shaker. The cell suspension was passed through a 70 μm cell strainer, followed by centrifugation. Cells were washed 3 times using sterile phosphate buffered saline (PBS). […]
Metabolic Activity/Toxicity Screening: Water Soluble Tetrazonium-1 (WST-1) Assay. […] Absorbance of the wells was read using a microplate reader at a wavelength of 450 nm. The absorbance of the wells containing WST-1 reagent with no cells was subtracted from the absorbance readings. Data is presented as the background subtracted reading normalized to 0 μM wells from five independent experiments for each hexosamine analog.
Background: Tetrazolium dyes change colour on reduction, which living cells bring about.

Data set [3] deals with IL-1β-stimulated chondrocytes. Briefly: IL-1β-stimulated chondrocytes in 3D PEGDA hydrogels: biochemical analysis (DNA, sGAG, collagen), histology, immunohistochemistry. The class given is cell-based, bovine. The settings on record: 10 ng/ml IL-1β, 21 days. The procedure:
Cell Isolation and Culturing. Bovine chondrocytes were isolated from 4- to 8-week-old calves (Research 87, Inc., Boylston, Mass.), as previously described. Briefly, cartilage was dissected from the femoral patellar groove and condyles and minced into approximately 1 mm^2 pieces. Cells were isolated from the tissue by digesting overnight at 37° C. with 2 mg/ml type II collagenase (Worthington Biochemical Corp., Lakewood, N.J.), 5% fetal bovine serum (FBS), 100 U/ml penicillin and 100 μg/ml streptomycin on an orbital shaker. The cell suspension was passed through a 70 μm cell strainer, followed by centrifugation. Cells were washed 3 times using sterile phosphate buffered saline (PBS). Chondrocyte medium was composed of high glucose Dulbecco's Modified Eagle's Medium (DMEM) supplemented with 10 mM HEPES, 0.4 mM L-proline, 50 μg/ml ascorbic acid, 10% (v/v) fetal bovine serum (FBS; Hyclone Laboratories, Inc., Logan, Utah), 0.1 mM non-essential amino acids, 100 U/ml penicillin and 100 μg/ml streptomycin.
as §2
For chondrocyte experiments, the cell-laden hydrogels were cultured in chondrocyte medium supplemented with 10 ng/ml IL-1β for 3 days. Following the initial 3 days, constructs were cultured with medium containing specific concentrations of hexosamine analog with 10 ng/ml IL-1β for an additional 21 days. The medium was changed 3 times per week.
Biochemical Analysis. The constructs (n=3 for chondrocyte experiments and n=4 for chondrogenic experiments) were lyophilized for 48 hours and the dry weights measured. Constructs were then homogenized in 125 μg/ml papainase (Worthington Biochemical Corp., Lakewood, N.J.) and digested for 16 hours at 60° C. Quantification of DNA content was carried out using a Hoescht Dye 33342 DNA assay. Calf thymus DNA was used to generate standard curves. Quantification of sulfated glycosaminoglycans (sGAG), a molecule found in cartilage ECM, was carried out using a 1,9-dimethylmethylene blue (DMMB) dye assay; chondroitin sulfate was used to generate standard curves. Quantification of collagen was carried out via measuring hydroxyproline content after hydrolyzing in 6 N HCl overnight at 120° C. The reaction of hydroxyproline with chloramine-T and p-dimethylaminobenzaldehyde was performed as a measure of total collagen content; hydroxyproline was used to generate standard curves.
Histology and Immunohistochemistry. Constructs were fixed in 10% formalin or 4% paraformaldehyde followed by dehydration in increasing concentrations of ethanol, embedded in paraffin and sliced into 5 μm sections. After paraffin removal and subsequent rehydration, sections were stained for proteoglycans using Safranin-O and fast green or prepared for immunohistochemistry. For immunohistochemical staining of type II collagen, endogenous peroxidase was quenched using 3% (v/v) hydrogen peroxide in methanol. Sections were then incubated at 37° C. with 2.5% (w/v) hyaluronidase and stained using a Histostain-SP Kit (AEC, Broad Spectrum) (Life Technologies, Grand Island, N.Y.) following the manufacturer's instructions. […]

For data set [4], the system named is chondrogenic-induced MSCs. Briefly: Chondrogenic-induced MSCs in 3D PEGDA hydrogels: biochemical analysis and histology. The class given is cell-based, goat. The following applies: 21 days. The procedure:
as §1
as §2, with “minutes. […]” for “minutes.”
as §3

The mark [5] stands for this setting: both medium conditions, 21 days, dexamethasone 100 nM.

Regarding `CCCC(=O)OC[C@H]1OC(O)[C@H](NC(C)=O)[C@@H](OC(=O)CCC)[C@H]1OC(=O)CCC` (stereo partly drawn) [GalNAc-a, 3,4,6-O-Bu3GalNAc], the SOX9 gene expression result in data set [1] (50 μM to 150 μM, both medium conditions, 21 days) is reported as “decreased in a dose-dependent manner”; in data set [1] (50 μM, ascorbic acid-containing medium, 21 days) it was “increased SOX9 expression”. The “type I collagen gene expression” value in data set [1] (50 μM, both medium conditions, 21 days) is given as “initially increased”. In data set [1] (above 50 μM for GalNAc-a, dexamethasone 100 nM, both medium conditions), the “type I collagen gene expression compared to no analog exposure” value is “remained elevated”. The MMP13 gene expression result in data set [1] (all analog concentrations, regardless of medium condition) was “increased at all analog concentrations”. Also, the aggrecan gene expression result in data set [1] (setting [5]) is on record as “followed a similar trend as SOX9 expression”. In data set [1] (setting [5]), the “type II collagen gene expression” value is reported as “decreased type II collagen expression”. Besides, the DNA content result in data set [2] is on record as “did not have an effect”; in data set [4] (with or without ascorbic acid) it was “did not change”. The “sGAG accumulation normalized to DNA” value in data set [2] is on record as “decreased sGAG accumulation”; in data set [3] (at 150 μM) it was “further increase”; in data set [4] (both medium conditions (with/without ascorbic acid), GalNAc-a varying concentrations, dexamethasone 100 nM), “dose-dependent decrease”. The “concentration from which reduced viability was observed” value in the data set with Chondrocytes was not below 160 µM. For the same compound, the “proteoglycan deposition (Safranin-O staining)” value in data set [3] (at 150 μM) is given as “further increase”. The “type II collagen deposition (immunohistochemistry)” value in data set [3] (starting at 50 μM, comparison of the three analogs) is listed as “highest staining intensity”. Further, the “cartilage-like tissue formation (sGAG content, proteoglycan and type II collagen staining)” value in data set [3] (comparison of the three analogs) is on record as “greatest cartilage-like tissue formation”. The “chondrogenic differentiation of the MSCs” value in data set [4] was “inhibits chondrogenic differentiation”. In addition, the “total collagen accumulation normalized to DNA” value in data set [4] (ascorbic acid-containing medium, GalNAc-a varying concentrations, dexamethasone 100 nM) is listed as “dose-dependent decrease”.
